Measurements: paper PMC3904085 (Frontiers in Neuroscience, 2014)

Biological target: T1, human OX1 receptors (Homo sapiens, UniProt O43613)
T1 sequence (O43613 1-425): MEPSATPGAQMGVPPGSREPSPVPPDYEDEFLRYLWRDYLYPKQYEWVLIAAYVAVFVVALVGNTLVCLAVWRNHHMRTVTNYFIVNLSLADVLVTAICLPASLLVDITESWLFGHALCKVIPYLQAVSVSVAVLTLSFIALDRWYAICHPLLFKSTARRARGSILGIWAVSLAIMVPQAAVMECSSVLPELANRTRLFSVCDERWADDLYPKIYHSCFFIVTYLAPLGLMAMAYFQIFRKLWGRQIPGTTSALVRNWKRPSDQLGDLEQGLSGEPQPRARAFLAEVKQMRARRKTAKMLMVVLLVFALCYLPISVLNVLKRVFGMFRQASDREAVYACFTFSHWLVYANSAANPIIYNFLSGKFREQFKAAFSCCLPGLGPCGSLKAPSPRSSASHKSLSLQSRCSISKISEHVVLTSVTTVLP
Experiment: Radioligand binding, [125I]-Orexin A displacement, HEK293 membranes
Design: expressed in transfected cells; membranes
Conditions: 90 min, mean ± s.e.m. (n)
Protocol: Briefly, the membranes were isolated by homogenizing cell pellet in 30 ml (w/v) 50 mM Tris buffer (pH 7.4) containing Roche Complete EDTA free protease tablets. […] All binding studies were conducted at a final volume of 200 μl. […] Then 300 μl of this solution was placed in column B on a Nunc polypropylene 96-well plate (Thermo Fisher Scientific, Inc., Rochester, NY). Serial dilutions were then made using a Biomek 2000 (Beckman Coulter, Inc., Fullerton, CA) from a starting concentration of 40 μM. […] All binding was terminated by rapid filtration using a TOMTEC 96-well cell harvester (Hamden, CT) through GF/A filters that had been presoaked with 0.3% polyethyleneimine. The filters were washed with 5.0 ml ice-cold 50 mM Tris buffer (pH 7.4) and air-dried overnight. […] Protein concentrations were measured using Coomassie Protein Plus Assay Reagent (Pierce, Rockford, IL) and serum albumin standards.

Structure (SMILES): CNC(=O)[C@@H](c1ccccc1)N1CCc2cc(OC)c(OC)cc2[C@@H]1CCc1ccc(C(F)(F)F)cc1 [Almorexant (R)]
- Receptor binding affinity, Ki OX1: inactive
